Laboratory results: patent US8415378B2, “Isoxazol-3(2H)-one analogs as therapeutic agents” (AstraZeneca AB, priority 2009, dated 2013)
pIC50: −log10 of the molar value.

Biological target: T1, human Glu-plasminogen (Homo sapiens, UniProt P00747)
T1 construct: human Glu-plasminogen; purchased Chromogenix, Italy
Assay: Clot-lysis buffer assay
Format: biochemical
Description: The assay method used for evaluating biological activity of the compounds according to the invention was Clot-lysis buffer assay.
Tested substance were added to the reaction mixture in 10% DMSO. Reaction was started by the addition of thrombin.
Measured according to the Clot-lysis buffer assay described above.

T1 sequence (P00747 20-810 limits assumed): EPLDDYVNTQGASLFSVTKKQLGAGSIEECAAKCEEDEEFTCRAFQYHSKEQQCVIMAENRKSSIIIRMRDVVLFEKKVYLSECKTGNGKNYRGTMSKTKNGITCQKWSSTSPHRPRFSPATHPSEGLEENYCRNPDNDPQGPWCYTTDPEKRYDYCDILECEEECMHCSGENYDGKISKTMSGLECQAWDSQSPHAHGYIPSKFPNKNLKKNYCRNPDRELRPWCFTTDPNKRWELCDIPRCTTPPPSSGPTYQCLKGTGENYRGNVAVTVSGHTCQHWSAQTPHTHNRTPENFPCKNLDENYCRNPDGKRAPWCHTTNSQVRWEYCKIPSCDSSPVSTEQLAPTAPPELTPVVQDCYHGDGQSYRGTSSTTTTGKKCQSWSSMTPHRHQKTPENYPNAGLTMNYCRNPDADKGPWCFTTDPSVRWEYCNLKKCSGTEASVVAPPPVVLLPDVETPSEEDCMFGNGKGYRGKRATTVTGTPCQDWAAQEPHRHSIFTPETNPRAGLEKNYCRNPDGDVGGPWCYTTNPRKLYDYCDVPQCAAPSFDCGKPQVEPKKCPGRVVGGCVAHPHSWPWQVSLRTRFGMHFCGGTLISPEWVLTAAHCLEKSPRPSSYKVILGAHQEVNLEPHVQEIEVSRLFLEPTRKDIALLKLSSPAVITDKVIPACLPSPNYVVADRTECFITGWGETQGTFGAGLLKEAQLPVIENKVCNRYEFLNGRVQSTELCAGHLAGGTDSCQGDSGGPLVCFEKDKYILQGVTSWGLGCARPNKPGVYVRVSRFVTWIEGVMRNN

SMILES | pIC50
O=c1cc([C@H]2CCN[C@@H](Cc3ccc(C(F)(F)F)c(F)c3)C2)o[nH]1 [Example 140, 5-((2R,4S)-2-(3-Fluoro-4-(trifluoromethyl)benzyl)piperidin-4-yl)isoxazol-3(2H)-one] | 6.22
O=c1cc([C@@H]2CCN[C@H](c3cc(Cl)cc(Cl)c3)C2)o[nH]1 [Example 56, 5-((2S,4R)-2-(3,5-Dichlorophenyl)piperidin-4-yl)isoxazol-3(2H)-one] | 4.36
O=c1cc([C@@H]2CCN[C@@H](Cc3cc(F)cc(C(F)(F)F)c3)C2)o[nH]1 (relative stereo) [Example 139, 5-(Trans-2-(3-fluoro-5-(trifluoromethyl)benzyl)piperidin-4-yl)isoxazol-3(2H)-one] | 5.54
Cc1cc([C@H]2C[C@@H](c3cc(=O)[nH]o3)CCN2)ccc1C(F)(F)F [Example 67, 5-((2R,4S)-2-(3-Methyl-4-(trifluoromethyl)phenyl)piperidin-4-yl)isoxazol-3(2H)-one] | 5.89
O=c1cc([C@H]2CCN[C@@H](CCc3ccc(F)cc3)C2)o[nH]1 [Example 92, 5-((2S,4S)-2-(4-Fluorophenethyl)piperidin-4-yl)isoxazol-3(2H)-one] | 5.96
O=c1cc([C@@H]2CCN[C@H](COC3CCCCC3)C2)o[nH]1 [Example 85, 5-((2S,4R)-2-(Cyclohexyloxymethyl)piperidin-4-yl)isoxazol-3(2H)-one] | 3.76
O=c1cc([C@@H]2CCN[C@H](c3ccc(Cl)cc3)C2)o[nH]1 [Example 28, 5-((2S,4R)-2-(4-Chlorophenyl)piperidin-4-yl)isoxazol-3(2H)-one] | 3.55
O=c1cc([C@H]2CCN[C@@H](c3ccc(F)cc3F)C2)o[nH]1 [Example 44, 5-((2R,4S)-2-(2,4-Difluorophenyl)piperidin-4-yl)isoxazol-3(2H)-one] | 5.64
O=c1cc([C@@H]2CCN[C@@H](Cc3ccc(Cl)cc3)C2)o[nH]1 (relative stereo) [Example 116, 5-(Trans-2-(4-chlorobenzyl)piperidin-4-yl)isoxazol-3(2H)-one] | 5.25
O=c1cc([C@@H]2CCN[C@H](CCc3ccc(F)cc3)C2)o[nH]1 [Example 93, 5-((2R,4R)-2-(4-Fluorophenethyl)piperidin-4-yl)isoxazol-3(2H)-one] | 4.16
O=c1cc([C@H]2CCN[C@H](Cc3ccc(F)c(F)c3)C2)o[nH]1 [Example 122, 5-((2S,4S)-2-(3,4-Difluorobenzyl)piperidin-4-yl)isoxazol-3(2H)-one] | 5.36
O=c1cc([C@@H]2CCN[C@H](Cc3ccccc3C(F)(F)F)C2)o[nH]1 [Example 111, 5-((2S,4R)-2-(2-(trifluoromethyl)benzyl)piperidin-4-yl)isoxazol-3(2H)-one] | 4.50
O=c1cc([C@H]2CCN[C@@H](c3cc(Cl)cc(Cl)c3)C2)o[nH]1 [Example 55, 5-((2R,4S)-2-(3,5-Dichlorophenyl)piperidin-4-yl)isoxazol-3(2H)-one] | 6.22
O=c1cc([C@@H]2CCN[C@@H](c3ccc(C(F)(F)F)cc3F)C2)o[nH]1 (relative stereo) [Example 74, 5-(Trans-2-(2-fluoro-4-(trifluoromethyl)phenyl)piperidin-4-yl)isoxazol-3(2H)-one] | 4.28
O=c1cc([C@H]2CCN[C@H](C3CCCCC3)C2)o[nH]1 [Example 80, 5-((2S,4S)-2-Cyclohexylpiperidin-4-yl)isoxazol-3(2H)-one] | 4.36
O=c1cc([C@@H]2CCN[C@@H](c3cc(F)c(Cl)c(F)c3)C2)o[nH]1 (relative stereo) [Example 66, 5-(Trans-2-(4-chloro-3,5-difluorophenyl)piperidin-4-yl)isoxazol-3(2H)-one] | 5.12
CC(C)(C)c1cc(C[C@H]2C[C@H](c3cc(=O)[nH]o3)CCN2)cc(C(C)(C)C)c1 (relative stereo) [Example 148, 5-(Trans-2-(3,5-di-tert-butylbenzyl)piperidin-4-yl)isoxazol-3(2H)-one] | 5.57
CC(C)(C)c1ccc([C@@H]2C[C@H](c3cc(=O)[nH]o3)CCN2)s1 [Example 43, 5-((2S,4R)-2-(5-tert-Butylthiophen-2-yl)piperidin-4-yl)isoxazol-3(2H)-one] | 4.11

Other lines, results leading:

pIC50 | SMILES
4.13 | O=c1cc([C@@H]2CCN[C@@H](c3ccc(F)cc3)C2)o[nH]1 (relative stereo) [Example 26, 5-(Trans-2-(4-fluorophenyl)piperidin-4-yl)isoxazol-3(2H)-one]
6.05 | O=c1cc([C@H]2CCN[C@@H](Cc3cc(F)c(F)c(F)c3)C2)o[nH]1 [Example 143, 5-((2R,4S)-2-(3,4,5-Trifluorobenzyl)piperidin-4-yl)isoxazol-3(2H)-one]
5.44 | O=c1cc([C@@H]2CCN[C@@H](Cc3cc(F)ccc3F)C2)o[nH]1 (relative stereo) [Example 126, 5-(Trans-2-(2,5-difluorobenzyl)piperidin-4-yl)isoxazol-3(2H)-one]
3.64 | CC(C)(C)c1ccc([C@H]2C[C@H](c3cc(=O)[nH]o3)CCN2)cc1 (relative stereo) [Example 37, 5-(Trans-2-(4-tert-butylphenyl)piperidin-4-yl)isoxazol-3(2H)-one]
4.46 | CC(C)(C)c1ccc([C@H]2C[C@@H](c3cc(=O)[nH]o3)CCN2)s1 [Example 42, 5-((2R,4S)-2-(5-tert-Butylthiophen-2-yl)piperidin-4-yl)isoxazol-3(2H)-one]
4.35 | CC(C)(C)c1cc(C[C@@H]2C[C@H](c3cc(=O)[nH]o3)CCN2)cc(C(C)(C)C)c1 [Example 147, 5-((2S,4R)-2-(3,5-Di-tert-butylbenzyl)piperidin-4-yl)isoxazol-3(2H)-one]
3.91 | O=c1cc([C@@H]2CCN[C@H](Cc3cc(F)cc(C(F)(F)F)c3)C2)o[nH]1 [Example 138, 5-((2S,4R)-2-(3-Fluoro-5-(trifluoromethyl)benzyl)piperidin-4-yl)isoxazol-3(2H)-one]
6.22 | Cc1cc(C(F)(F)F)ccc1[C@H]1C[C@@H](c2cc(=O)[nH]o2)CCN1 [Example 72, 5-((2R,4S)-2-(2-Methyl-4-(trifluoromethyl)phenyl)piperidin-4-yl)isoxazol-3(2H)-one]
4.16 | O=c1cc([C@@H]2CCN[C@H](Cc3ccc(C(F)(F)F)c(F)c3)C2)o[nH]1 [Example 141, 5-((2S,4R)-2-(3-Fluoro-4-(trifluoromethyl)benzyl)piperidin-4-yl)isoxazol-3(2H)-one]
4.62 | O=c1cc([C@@H]2CCN[C@@H](c3ccc(Cl)cc3)C2)o[nH]1 (relative stereo) [Example 29, 5-(Trans-2-(4-chlorophenyl)piperidin-4-yl)isoxazol-3(2H)-one]
4.35 | O=c1cc([C@@H]2CCN[C@@H](c3ccc(F)cc3Cl)C2)o[nH]1 (relative stereo) [Example 48, 5-(Trans-2-(2-chloro-4-fluorophenyl)piperidin-4-yl)isoxazol-3(2H)-one]
6.05 | O=c1cc([C@H]2CCN[C@@H](c3ccc(Cl)cc3Cl)C2)o[nH]1 [Example 51, 5-((2R,4S)-2-(2,4-Dichlorophenyl)piperidin-4-yl)isoxazol-3(2H)-one]
3.92 | O=c1cc([C@@H]2CCN[C@@H](Cc3cc(F)cc(F)c3)C2)o[nH]1 [Example 133, 5-((2R,4R)-2-(3,5-Difluorobenzyl)piperidin-4-yl)isoxazol-3(2H)-one]
5.82 | O=c1cc([C@H]2CCN[C@@H](c3ccc(Cl)cc3)C2)o[nH]1 [Example 27, 5-((2R,4S)-2-(4-Chlorophenyl)piperidin-4-yl)isoxazol-3(2H)-one]
6.00 | O=c1cc([C@H]2CCN[C@@H](Cc3cc(F)cc(C(F)(F)F)c3)C2)o[nH]1 [Example 137, 5-((2R,4S)-2-(3-Fluoro-5-(trifluoromethyl)benzyl)piperidin-4-yl)isoxazol-3(2H)-one]
4.50 | O=c1cc([C@H]2CCN[C@H](c3cc(F)c(F)cc3F)C2)o[nH]1 [Example 64, 5-((2S,4S)-2-(2,4,5-Trifluorophenyl)piperidin-4-yl)isoxazol-3(2H)-one]
5.19 | O=c1cc([C@@H]2CCN[C@@H](Cc3ccc(OC(F)(F)F)cc3)C2)o[nH]1 (relative stereo) [Example 114, 5-(Trans-2-(4-(trifluoromethoxy)benzyl)piperidin-4-yl)isoxazol-3(2H)-one]
4.94 | O=c1cc([C@@H]2CCN[C@@H](c3cc(F)c(C(F)(F)F)c(F)c3)C2)o[nH]1 (relative stereo) [Example 71, 5-(Trans-2-(3,5-difluoro-4-(trifluoromethyl)phenyl)piperidin-4-yl)isoxazol-3(2H)-one]
4.84 | O=c1cc([C@@H]2CCN[C@@H](c3ccc(C(F)(F)F)cc3)C2)o[nH]1 (relative stereo) [Example 35, 5-(Trans-2-(4-(trifluoromethyl)phenyl)piperidin-4-yl)isoxazol-3(2H)-one]
5.77 | O=c1cc([C@H]2CCN[C@@H](COC3CCCCC3)C2)o[nH]1 [Example 84, 5-((2R,4S)-2-(Cyclohexyloxymethyl)piperidin-4-yl)isoxazol-3(2H)-one]
4.40 | O=c1cc([C@@H]2CCN[C@@H](c3cc(Cl)cc(Cl)c3)C2)o[nH]1 (relative stereo) [Example 57, 5-(Trans-2-(3,5-dichlorophenyl)piperidin-4-yl)isoxazol-3(2H)-one]
3.82 | O=c1cc([C@@H]2CCN[C@H](c3ccc(C(F)(F)F)cc3)C2)o[nH]1 [Example 34, 5-((2S,4R)-2-(4-(Trifluoromethyl)phenyl)piperidin-4-yl)isoxazol-3(2H)-one]
6.00 | O=c1cc([C@H]2CCN[C@@H](c3ccc(F)c(F)c3)C2)o[nH]1 [Example 23, 5-((2R,4S)-2-(3,4-Difluorophenyl)piperidin-4-yl)isoxazol-3(2H)-one]
5.85 | O=c1cc([C@H]2CCN[C@@H](Cc3c(F)cccc3F)C2)o[nH]1 [Example 127, 5-((2R,4S)-2-(2,6-Difluorobenzyl)piperidin-4-yl)isoxazol-3(2H)-one]
